Results on 3 molecules are retold here after patent publication US20060002934A1 (priority 2002, published 2006).

What all share (format): cell-based, human
The subject of experiment [1] is MDA-MB-435S cells expressing del 8 E-cadherin. Kind of experiment: Cell motility by time-lapse laser scanning microscopy, del 8 E-cadherin transfectants. As to conditions: del 8 E-cadherin cells on collagen I, Tyrphostin AG 1478 6.3 μM; for cell motility enhanced by mutant E-cadherin (effect of inhibitor): 7 h, PD 98059 50 μM, LY 294002 40 μM. Here is the method:
For time-lapse laser scanning microscopy, cells were cultivated in a microscope-coupled incubation chamber (Zeiss, Jena, Germany) at 37° C. under 5% CO2. Cells were seeded at a density of 2×10^5 cells per 3.5-cm in plates with a glass bottom which were purchased either uncoated or coated with poly-lysine from MatTek Corporation (Ashland, Mass., USA). Uncoated plates were coated for 4 h at 37° C. with collagen I (100 μg/ml, Sigma, Deisenhofen, Germany) or overnight at 4° C. with fibronectin (10 μg/ml, Sigma) or vitronectin (10 μg/ml, Becton Dickinson, Bedford, USA). Kinase inhibitors were used at final concentrations of 50 μM (PD 98059, Sigma, Deisenhofen, Germany), 40 μM (LY 294002, Calbiochem, Schwalbach, Germany), or 6.3 μM (Tyrphostin AG 1478, Sigma). […] Phase contrast images were taken at 3 min intervals with an Axiovert laser scanning microscope LSM 510 (Zeiss) with lens PNF 20×/0.4 PH2 and a helium-neon laser at 543 nm in transmission scanning mode. The percentage of motile cells was measured by drawing the outlines of cells on the screen and counting the cells which moved completely out of the initial area within the recording time of 7 h. Semiautomatic tracing of cell nuclei using the laser scanning microscope software from Zeiss allowed determination of the individual cell speed. The calculation of the cell speed is based on the division of the displacement of an individual cell divided by the total time of recording. Cells were brought in suspension by disruption of cell-cell and cell-matrix interactions and seeded on glass plates precoated with collagen type 1. Cell motility was analyzed by long-term recordings of a duration of 7 h starting 2 h after plating using a laser scanning microscope coupled with a temperature- and CO2-controlled incubation chamber. Motile cells were defined as cells which were able to move out of their initial space within 7 h according to a method described by Marks (J. Cell Bioll. 112 (1991), 149-158). The percentage of motile cells was similar in non-transfected (30%) or wt E-cadherin expressing MDA-MB-435S cells (26%) but elevated upon expression of mutant E-cadherin: […] (52%), […] (58%) and p8 (45%, FIG. 1B). It has been shown for a number of cell lines that the motile behavior of individual cells is variable and therefore it is advisable to investigate a large number of cells to obtain a reliable determination of cellular velocity (Hartmann-Petersen, Cytometry 40 (2000), 260-270). In order to determine the motility of individual cells, the center of the nucleus was semiautomatically traced and the speed of 60 cells per cell line derived from at least three independent experiments was calculated. The range between the minimal and the maximal cell speed and the median of cell speeds were used as motility parameters. […]

For another experiment, the system named is p44/42 MAP kinase. Briefly: Western blot with phosphorylation-specific antibodies, MAP kinase. As to conditions: data not shown. Here is the method:
(§1) For immunoblot analysis, cells were seeded at a density of 6×10^5 cells per 10 cm tissue culture dish and lysed 5 h later with 500 μL-CAM buffer (140 mM NaCl, 4.7 mM KCl, 0.7 mM MgSO4, 1.2 mM CaCl2, 10 mM Hepes pH 7.4, containing 1% (v/v) Triton-X-100 and 1 mM phenylmethylsulfonylfluoride (PMSF) (Cunningham, Proc. Acad. Sci. USA 81 (1984), 5787-5791). Proteins were separated by 7% SDS-polyacrylamide gel electrophoresis followed by transfer to nitrocellulose (Schleicher & Schuell, Dassel, Germany) or PVDF (Bio-Rad Laboratories, München, Germany) membranes. Polyclonal antibodies against total or activated kinases were purchased from New England Biolabs (Frankfurt, Germany): Akt antibody (#9272), detecting total Akt kinase levels, phospho-Akt antibody (Ser473, #9270), detecting phosphorylated Ser 473 in Akt1, Akt2 and Akt3, MAP kinase antibody (# 9102), detecting total MAP kinase, phospho-p44/42 MAP kinase (#9101) detecting activated MAP kinase phosphorylated at Thr 202/[…]. Monoclonal antibody against p53 was purchased from Oncogene Research Products (Ab-6, #OP43). Polyclonal antibodies against total or activated p38 MAP kinases were purchased from New England Biolabs. Phospho-p38 MAP kinase polyclonal antibody (#9211) detects phosphorylated threonine 180 and tyrosine 182 p38 MAP kinase (#9212). […]

The next experiment deals with Akt/PKB. Kind of experiment: Western blot with phosphorylation-specific antibodies, Akt/PKB. The note with it: data not shown. Here is the method: as §1
Experiment [2] deals with wt-EcadEGFP expressing MDA-MB-435S cells. Briefly: Time-lapse imaging of motility and E-cadherin localization, wt-EcadEGFP transfectants. The note with it: for cell motility (range of cell speeds) / cell paths (range): wt-EcadEGFP cells, 10 cells, 4 h. Here is the method: (§2) For time-lapse laser scanning microscopy, cells were cultivated overnight in a microscope-coupled incubation chamber (Zeiss, Jena, Germany) at 37 °C under 5% CO2. Cells were seeded at a density of 1×10^5 cells per 3.5-cm in collagen I-coated plates with a glass bottom which were purchased from MatTek Corporation (Ashland, Mass., USA). Uncoated plates were coated for 4 h at 37° C. with collagen I (100 μg/ml). EGFR kinase inhibitor Tyrphostin AG 1478 (Sigma, Deisenhofen, Germany) was used at a final concentration of 6.3 μM. […] Phase contrast images were taken at 2-3 min intervals with an Axiovert laser scanning microscope LSM 510 (Zeiss) with lens PNF 63× (oil) and an argon laser at 488 nm with a transmission filter of 515 nm.
(§3) To investigate the temporal localization of mutant E-cadherin during cell migration, EcadEGFP transfected cells were cultivated in an incubation chamber coupled with a Zeiss Axiovert 100 microscope. Cells transfected with the vector pEGFP-N2 Vektor or the different EcadEGFP constructs (wt-EcadEGFP and p8-EcadEGFP), were seeded on collagen I coated dishes with glas bottom.

Experiment [3] concerns p8-EcadEGFP expressing MDA-MB-435S cells. Briefly: Time-lapse imaging of motility and E-cadherin localization, p8-EcadEGFP transfectants. Here is the method:
as §2, §3

The test system of experiment [4] is MDA-MB-435S cells expressing wt E-cadherin. Kind of experiment: Cell motility by time-lapse laser scanning microscopy, wt E-cadherin transfectants. Here is the method: For time-lapse laser scanning microscopy, cells were cultivated in a microscope-coupled incubation chamber (Zeiss, Jena, Germany) at 37° C. under 5% CO2. Cells were seeded at a density of 2×10^5 cells per 3.5-cm in plates with a glass bottom which were purchased either uncoated or coated with poly-lysine from MatTek Corporation (Ashland, Mass., USA). Uncoated plates were coated for 4 h at 37° C. with collagen I (100 μg/ml, Sigma, Deisenhofen, Germany) or overnight at 4° C. with fibronectin (10 μg/ml, Sigma) or vitronectin (10 μg/ml, Becton Dickinson, Bedford, USA). Kinase inhibitors were used at final concentrations of 50 μM (PD 98059, Sigma, Deisenhofen, Germany), 40 μM (LY 294002, Calbiochem, Schwalbach, Germany), or 6.3 μM (Tyrphostin AG 1478, Sigma).
Phase contrast images were taken at 3 min intervals with an Axiovert laser scanning microscope LSM 510 (Zeiss) with lens PNF 20×/0.4 PH2 and a helium-neon laser at 543 nm in transmission scanning mode. The percentage of motile cells was measured by drawing the outlines of cells on the screen and counting the cells which moved completely out of the initial area within the recording time of 7 h. […]
Cells were brought in suspension by disruption of cell-cell and cell-matrix interactions and seeded on glass plates precoated with collagen type 1. Cell motility was analyzed by long-term recordings of a duration of 7 h starting 2 h after plating using a laser scanning microscope coupled with a temperature- and CO2-controlled incubation chamber. […]
It has been shown for a number of cell lines that the motile behavior of individual cells is variable and therefore it is advisable to investigate a large number of cells to obtain a reliable determination of cellular velocity (Hartmann-Petersen, Cytometry 40 (2000), 260-270). In order to determine the motility of individual cells, the center of the nucleus was semiautomatically traced and the speed of 60 cells per cell line derived from at least three independent experiments was calculated. […]

The mark [5] stands for this setting: collagen I, Tyrphostin AG1478 6,3 μM.
[6] abbreviates: p8-EcadEGFP cells, collagen I, Tyrphostin AG1478 6,3 μM, 10 cells, 4 h.
[7] abbreviates: serum starved overnight, EGF 100 ng/ml.

Entries after “also recorded” stand apart in the source; their conditions may differ.

Take `COc1cc2ncnc(Nc3cccc(Cl)c3)c2cc1OC` [Tyrphostin AG 1478]: the “cell motility enhanced by mutant E-cadherin (effect of inhibitor)” value in experiment [1] is “sensitive”. Further, in experiment [1] (traced 7 h), the “median and range of cell speeds” value was “decreased to the level of wt E-cadherin expressing cells”; the “percentage of motile cells” value is on record as “decreased to the level of wt E-cadherin expressing cells”. Moreover, the “EGF-induced activation of MAP kinase (phosphorylation)” value in the experiment with p44/42 MAP kinase is “completely blocked”. The “EGF-induced activation of Akt/PKB” value in the experiment on Akt/PKB is “completely blocked”. For the same molecule, the “localization of wt-EcadEGFP” value in experiment [2] (Tyrphostin AG1478 6,3 μM) is recorded as “not significantly changed; also recorded: no influence”. In experiment [2] (setting [5]), the “cell motility (range of cell speeds)” value is 1,3-8,8 μm/h and the “cell paths (range)” value is given as 15,1-35,2 μm. Besides, in experiment [3] (Tyrphostin AG1478 6,3 μM), the “localization of p8-EcadEGFP” value is “also localized perinuclear and at cell cell adhesion sites; also recorded: localized at cell cell contacts and perinuclear”. Moreover, in experiment [3] (setting [6]), the “cell motility (range of cell speeds)” value is given as 5,7-20 μm/h and the “cell paths (range)” value was 22,8-80,3 μm.

Consider epidermal growth factor [EGF], for which, in experiment [4] (wt E-cadherin cells on collagen I, 7 h, EGF 100 ng/ml), the “percentage of motile cells” value is given as “increased to the level of del 8 E-cadherin expressing cells”. In experiment [4] (wt E-cadherin cells, EGF treatment), the cellular motility entry was “enhanced cellular motility”. In addition, the cell morphology result in experiment [4] (wt or del 8 E-cadherin cells on collagen I, 2 h after plating, EGF 100 ng/ml (FIG. 5C)) was “developed filopodia and lost cell to cell contacts”. Moreover, in experiment [2] (setting [7]), the “cell motility (range of cell speeds)” value was 3,8-15,6 μm/h and the “cell paths (range)” value was 15,1-62,4 μm. Besides, in experiment [3] (EGF 100 ng/ml, p=0,364 Kruskal Wallis Test), the “effect on the motility of p8-EcadEGFP transfected cells” value is “only minor effects”. The “cell paths (range)” value in experiment [3] (p8-EcadEGFP cells, serum starved overnight, EGF 100 ng/ml, 10 cells, 4 h) was 19,7-97,2 μm. Moreover, the “localization of p8-EcadEGFP” value in experiment [3] (serum starved, EGF 100 ng/ml) is “detectable at the cell edges and in lamellipodiae and at cell cell contact sites; also recorded: no influence”.

Take `COc1cccc(-c2cc(=O)c3ccccc3o2)c1N` [PD 98059]: in experiment [1], the “cell motility enhanced by mutant E-cadherin (effect of inhibitor)” value is “less effective; also recorded: no inhibitory effect”. For the same molecule, the “EGF-induced activation of MAP kinase (phosphorylation)” value in the experiment with p44/42 MAP kinase is listed as “effectively blocked”.
